Read-outs that look alike come from different tables or passages of the source. Marks after values point to notes of the source that are not given here. *1 amine or outer side, *2 acyl side, *3 side chain or, on linkers, in order; H or OH if unused. Where a SMILES comes first, the peptide text is derived from it. Bridges are numbered along the chain shown (N, C = ends). Roman numbers before positions name the chains, in order. [ ]: non-standard residue; d: D form. Actinocin(9to1) = Cc1c2oc3c(C)ccc(C(=O)[*:1])c3nc-2c(C(=O)[*:2])c(N)c1=O; NMeV = CN[C@H](C(=O)O)C(C)C; Sar = CNCC(=O)O
Legend:
[1] = system: Tobacco mosaic virus (TMV), strain U1; assay: Induction of resistance against TMV infection in Datura; type: in vivo; conditions: Datura stramonium
Description: (§1) Virus: Tobacco mosaic virus (TMV), strain U1;
(§2) Plants: Tobacco (Nicotiana tabacum L.) variety Immune 580 and Datura stramonium L., cultivated in a hothouse under conditions of natural lighting, humidity, and temperature. Plants at a stage of 4-6 leaves were used in the experiment.
(§3) Investigations of induced properties of GXM were carried out on the tobacco and datura plants. […] The two halves of leaves were inoculated by TMV (1-5 μg/mL). The degree of AVR was taken into account by the formula mentioned above.

[2] = system: Tobacco mosaic virus (TMV), strain U1; type: in vivo; conditions: Datura stramonium
Excerpt: as §1, §2
Polysaccharides, extracted from culture liquid of Tremella mesenterica were employed in this study using the method of Kovalenko with some modifications. To isolate acid glucuronoxylomannan (GXM) from neutral polysaccharides, we applied its sedimentation from a water solution with acetone (1:1) in the presence of 0.05 M CaCl2. Gas chromatography was carried out on Sephadex G-50 (2.5×80 cm) in pyridinium-acetate buffer, pH 4.5 (4 mL pyridine and 10 mL AcOH in 1 L water) and the eluate was monitored by refractive index detector.
In in vitro experiments the water solutions of the total preparation, neutral polysaccharide preparations, and pure GXM at concentrations of 10, 100, 500, and 1000 μg/mL were added to a suspension of TMV (10 μg/mL). After incubation over the 30 min the left halves of datura's leaves were inoculated with this mixture. The right halves of leaves were inoculated with TMV at the same concentration without polysaccharides. The degree of inhibition of viral infection, or VIR, was counted (in percentage) according to the number of local lesions on the experimental and control halves of the leaves by the following formula: I=((K−D)/K) 100%, where I—is a degree of virus inhibition or level of AVR, %; K—is the number (size) of local lesions in the control; D—is the number (size) of local lesions in the experiment.

[3] = system: Tobacco mosaic virus (TMV), strain U1; assay: Induction of resistance against TMV infection in tobacco; type: in vivo, Nicotiana tabacum, variety Immune 580; conditions: for Level of induced resistance, % / Number of local lesions per leaf, Experiment: Nicotiana tabacum Immune 580; for Level of resistance: GXM 1000 μg/mL, FIG. 11
Excerpt: Abscissa: interval between introduction of GXM and inoculation of TMV (days). Ordinate: the ratio (%) of the number of local lesions in the experiment (dark solid bars) and in control (textured light bars).
Abscissa: interval between introduction of GXM and inoculation of TMV (days). Ordinate: size of local lesions (mm) in the experiment (dark solid bars) and in control (textured light bars).
as §1, §2, §3

[4] = system: Coprinus comatus lectin; assay: Sugar-binding specificity: inhibition of lectin-induced hemagglutination by carbohydrates; type: biochemical; conditions: for Inhibition of lectin hemagglutinating activity by sugar: Coprinus comatus biomass lectin
Description: Sugar-binding specificity of lectins. The investigation of inhibition of lectin-induced hemagglutination by various carbohydrates was performed in a manner analogous to the hemagglutination test. Sugar samples (0.3 M) were prepared in phosphate buffered saline. All of the dilutions were mixed with an equal volume (25 μL) of a solution of the lectin. The mixture was allowed to stand for 30 min at room temperature and then mixed with 50 μL of 2% rabbit erythrocyte suspension. Sugar-binding specificity was expressed as the minimum concentration of each sugar required for inhibition of hemagglutination of titer 4 of the lectin. N-Acetyl-D-galactosamine (GalNAc); N-Acetyl-D-glucosamine (GlcNAc), D(+)Galactose (Gal); D(+)Glucose, D(+)Lactose (Lac); D(+)Mannose, xylose, cellobiose, and dulcitol were tested for detection of sugar-binding specificity of lectins.

[5] = system: Tobacco mosaic virus (TMV), strain U1; assay: Influence of actinomycin D on GXM-induced resistance to TMV; type: in vivo, Nicotiana tabacum, variety Immune 580; conditions: FIG. 14
Description: Abscissa: variants of the experiment: 1—GXM; 2—mixture of GXM and AMD (10 μg/mL); 3—AMD (10 μg/mL) introduced 2 days after GXM; 4—AMD (20 μg/mL) introduced 2 days after GXM; 5—AMD (10 μg/mL). Ordinate: the ratio (%) of the quantity of local lesions in the experiment (dark solid bars) and in control (textured light bars).
When studying the GXM-induced mechanism of plant resistance, we used actinomycin D (AMD) inhibiting the DNA-dependent synthesis of mRNA by blocking RNA-polymerases. Solutions of AMD at the concentrations of 10 and 20 μg/mL and rhamnolipide (RL)−1 mg/mL, which were subepidermally introduced simultaneously or via definite periods of time after the GXM.

[6] = system: interferon (IFN); assay: IFN level in blood plasma of mice after per os biomass; type: in vivo; conditions: dose 50 mg/animal
[7] = system: IκBα phosphorylation; assay: pIκBα level in H2O2-stimulated MCF7 cells, Western immunoblot; type: cell-based
Description: Cell Lysis, Preparation of Total Cell Lysates. In order to measure the intracellular levels of certain proteins as a response to the crude fungal extracttreatments, each time after cells were collected, a total cell lysis was performed. The exact procedure of the total cell lysis is described below.
Cells were collected and washed 3 times with cold phosphate buffered saline (PBS) through centrifugation for 5 min, at 3,000 rpm, and 4° C. The final cell amounts were collected in Eppendorf tubes and the left over PBS from the last washing was discarded so that only the cell pellet was left in each tube. For cell lysis, each time a freshly prepared lysis buffer was used with the following content: 500-1000 μL, depending on the number of samples, of cell lysis reagent, protease inhibitor cocktail, and both phosphatase inhibitor cocktails 1 and 2 at the final concentration of 1%, and 0.3 M of phenylmethylsulfonyl fluoride (PMSF). […]
As a control, no H2O2 treatment was used, according to which the kinetics of pIκBα were determined. […]
Densitometric Analysis. Densitometric quantitative analyses of the protein bands, detected by Western blot, have been carried out using the TotalLab software and are presented as folds of the volumes of protein bands. […]

glucuronoxylomannan [GXM]
Level of induced resistance, % ([1]; 100 μg/mL): 110% | Number of local lesions per leaf, Experiment ([1]; 100 μg/mL): 71.2 | Level of induced resistance, % ([1]; 500 μg/mL): 90% | Number of local lesions per leaf, Experiment ([1]; 500 μg/mL): 90.0 | Level of induced resistance, % ([1]; 1000 μg/mL): 14* % | Number of local lesions per leaf, Experiment ([1]; 1000 μg/mL): 119.9 | Level of induced resistance, % ([1]; 2000 μg/mL): 33** % | Number of local lesions per leaf, Experiment ([1]; 2000 μg/mL): 119.6 | Number of local lesions per leaf, Experiment ([2]; 10 μg/mL): 26.5 | Inhibition, % ([2]; 100 μg/mL): 16* % | Number of local lesions per leaf, Experiment ([2]; 100 μg/mL): 4.5 | Number of local lesions per leaf, Experiment ([2]; 1000 μg/mL): 1.3 | Level of induced resistance, % ([3]; 100 μg/mL): 20% | Number of local lesions per leaf, Experiment ([3]; 100 μg/mL): 98.1 | Level of induced resistance, % ([3]; 500 μg/mL): 20% | Number of local lesions per leaf, Experiment ([3]; 500 μg/mL): 102.7 | Level of induced resistance, % ([3]; 1000 μg/mL): 17* % | Number of local lesions per leaf, Experiment ([3]; 1000 μg/mL): 128.5 | Size of local lesions, experiment vs control ([3]; 1000 μg/mL, tobacco): reliable differences were not observed | Level of induced resistance, % ([3]; 2000 μg/mL): 52** % | Number of local lesions per leaf, Experiment ([3]; 2000 μg/mL): 63.4 | Growth (size) of TMV local lesions ([3]; 2500 μg/mL, tobacco, FIG. 13): intensifies the growth of viral lesions | Development of AVR relative to TMV ([3]; 1000 and 2500 μg/mL, first day after the inducer, tobacco): induces the development of AVR | Level of resistance ([3]; 5th day after the inducer, tobacco): 30% | Level of resistance ([3]; 7th day after the inducer, tobacco): 20%

OC[C@@H](O)[C@H](O)[C@H](O)[C@@H](O)CO [dulcitol]
Inhibition of lectin hemagglutinating activity by sugar [4]: did not inhibit

Cc1c2oc3c(C)ccc(C(=O)N[C@@H]4C(=O)N[C@H](C(C)C)C(=O)N5CCC[C@H]5C(=O)N(C)CC(=O)N(C)[C@@H](C(C)C)C(=O)O[C@@H]4C)c3nc-2c(C(=O)N[C@@H]2C(=O)N[C@H](C(C)C)C(=O)N3CCC[C@H]3C(=O)N(C)CC(=O)N(C)[C@@H](C(C)C)C(=O)O[C@@H]2C)c(N)c1=O [AMD, actinomycin D] (I: T[dV]P[Sar][NMeV] / II: T[dV]P[Sar][NMeV]; ester I:1-I:C, II:1-II:C; linker I:N-II:N via Actinocin(9to1))
Inhibition of development of GXM-induced AVR ([5]; AMD 10 μg/mL): completely | Inhibition of development of GXM-induced AVR ([5]; AMD 20 μg/mL): partly

Poly I:C
IFN titre ([6]; 6 hours): 320 units/ml | IFN titre ([6]; 24 hours): 40 units/ml | IFN titre ([6]; 48 hours): <20 units/ml

O=C[C@H](O)[C@@H](O)[C@H](O[C@@H]1O[C@H](CO)[C@@H](O)[C@H](O)[C@H]1O)[C@H](O)CO [cellobiose]
Inhibition of lectin hemagglutinating activity by sugar [4]: did not inhibit

O=C[C@H](O)[C@@H](O)[C@H](O)CO [xylose]
Inhibition of lectin hemagglutinating activity by sugar [4]: did not inhibit

OC[C@H]1O[C@@H](O[C@H]2[C@H](O)[C@@H](O)C(O)O[C@@H]2CO)[C@H](O)[C@@H](O)[C@H]1O (stereo partly drawn) [Lactose, D(+)Lactose]
MIC of saccharides ([4]; lactose, minimal concentration inhibiting hemagglutination): 780 µM

COc1cc(/C=C/C(=O)CC(=O)/C=C/c2ccc(O)c(OC)c2)ccc1O [curcumin]
pIκBα level ([7]; 10 μM, 100 μM H2O2, preliminary data): significantly inhibited | Effect on IκBα phosphorylation ([7]; MCF7, 10 min 100 μM H2O2, FIG. 2): high phospho-IkBα inhibitory effect

Reference: patent US20120124703A1, “NOVEL COPRINUS COMATUS AND TREMELLA MESENTERICA MUSHROOM STRAINS, PRODUCTS AND EXTRACTS THEREOF AND COMPOSITIONS COMPRISING THEM” (PALMED TEVA LTD, priority 2009, published 2012)
